Source: patent publication US6120997A, “Nucleic acid binders having an hydroxyamine motif” (The Scripps Research Institute, priority 1998, dated 2000)

How the values were obtained:
[1] = system: Escherichia coli (ATCC 25922); assay: minimum inhibitory concentration, broth dilution technique; type: cell-based; conditions: E. coli, liquid culture
Description: We reasoned that this modification would provide the cleanest test for probing the ionic contribution, since hydrogen bond donor abilities, electronegativity and steric demand are similar for both functional groups. In order to learn how well the model system correlates with in vivo activity, we checked the new compounds for antibacterial activity against three bacterial strains using the disc method (Kirby-Bauer technique). The minimum inhibitory concentrations (MICs) of the compounds were then determined using the broth dilution technique. For antibiotic testing protocols, see: (a) Disk testing protocols: Phillips, I.; Williams, D., in Laboratory Methods in Antimicrobial Chemotherapy, Garrod, L. (ed.) Churchill Livingstone Press: Edinburgh, 1978, pp. 3-30. (b) MIC determination: Waterworth, P. M., in Laboratory Methods in Antimicrobial Chemotherapy, Garrod, L. (ed.) Churchill Livingstone Press: Edinburgh, 1978, pp. 31-40; Barry, A. L. The Antimicrobic Susceptibility Test: Principles and Practice, Lea and Febiger: Philadelphia (1976). (c) Standards: Lorian, V., Antibiotics in Laboratory Medicine (2nd. ed.), Williams and Wilkins: Baltimore, 1986.
FIG. 39A gives the zone diameters measured for the three bacterial strains. The zone diameters measured for the strains with known antibiotics are well within the accepted limits. […] It is worth noting that some testing protocols recommend overnight growth of the cultures, rather than the minimum time required to obtain good growth of the control. MIC values were tested for several of the control antibiotics using overnight growth, and the MIC values observed were 2-4× greater than those observed for 4-6 hour growth.
Minimal Inhibitory Concentration (MIC) testing. E. coli ATCC 25922 was grown in Mueller-Hinton broth (cation-adjusted, BBL Microbiology Systems) to an optical density of approx. 0.5 (absorbance read at 600 nm), then diluted to an OD600 of 0.1. Samples of antibiotic were prepared in Mueller-Hinton broth, typically a series of 2-fold dilutions from […]. […] The absorbance of each sample was read (1=600 nm), and MIC was considered to be the lowest antibiotic concentration at which the absorbance was less than 1% of the no-antibiotic control.

[2] = system: bacterial protein synthesis; conditions: cited from earlier work

## NC[C@@H]1O[C@H](O[C@H]2[C@@H](O)[C@H](O[C@@H]3[C@@H](O)[C@H](N)C[C@H](N)[C@H]3O[C@H]3O[C@H](CN)[C@@H](O)[C@H](O)[C@H]3N)O[C@@H]2CO)[C@H](N)[C@@H](O)[C@@H]1O [Neomycin B]
[1]
  antibacterial activity / MIC compared with neomycin B (in words): within accepted ranges for sensitive E. coli strains
[2]
  effect on bacterial protein synthesis (in words): induces miscoding during translation
